The subject of test [1] is U937 cells. Briefly: U937 cell assay: inhibition of TNFa/zVAD-induced cell death (necroptosis), MTS viability. The format is cell-based.
For test [2], the target named is T1, hRIPK1 (aa 1-375) fusion protein (Homo sapiens, UniProt Q13546).
T1 construct: hRIPK1 (aa 1-375) fusion protein
T1 sequence (Q13546 1-375): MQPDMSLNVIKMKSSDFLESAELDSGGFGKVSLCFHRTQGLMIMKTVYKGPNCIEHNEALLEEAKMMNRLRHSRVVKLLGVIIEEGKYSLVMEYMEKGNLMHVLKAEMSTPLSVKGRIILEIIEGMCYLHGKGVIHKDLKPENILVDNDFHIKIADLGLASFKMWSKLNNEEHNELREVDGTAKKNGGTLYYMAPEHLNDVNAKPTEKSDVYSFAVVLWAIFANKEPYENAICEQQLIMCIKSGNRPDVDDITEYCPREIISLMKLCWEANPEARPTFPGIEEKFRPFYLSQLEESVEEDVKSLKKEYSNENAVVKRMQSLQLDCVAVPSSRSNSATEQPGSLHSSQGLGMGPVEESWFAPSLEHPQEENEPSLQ
Briefly: ADP Glo assay: RIPK1 autophosphorylation (ATP to ADP conversion) inhibition. The format is biochemical. To be noted: 50 μM ATP; 30 min preincubation, 240 min incubation at room temperature; 1% DMSO. On the procedure:
Evaluation of Receptor-Interacting Protein Kinase 1 Inhibition.
The catalytic activity of RIPK1 was measured by monitoring the conversion of Adenosine triphosphate (ATP) to Adenosine diphosphate (ADP) due to autophosphorylation using an ADP-Glo kinase kit (Promega, catalog no. V9104).
After another 240 minutes incubation at room temperature, 5 μl Promega ADP-Glo reagent I were added to quench the reaction and deplete unconsumed ATP. After an incubation period of 30 minutes, 10 μl Promega ADP-Glo detection reagent II were added resulting in conversion of ADP to ATP, which generates a light-reaction between luciferase and luciferin. Luminescence was quantified after 30 minutes with a Pherastar FS (BMG LABTECH, Ortenberg).
The adjustment was obtained by nonlinear regression using the Levenberg Marquardt algorithm.
(In general: ADP-Glo turns the ADP formed in a reaction into a luminescent signal.)

pIC50: −log10 of the molar value.

One may read the pIC50 as the IC50 on a negative log10 scale, so that one unit is a factor of ten. Low values mean a large IC50, high ones a small IC50. Compound `COc1ncnc(N2CCC(C(=O)N3OCC[C@H]3c3cc(F)cc(C#N)c3)CC2)c1F` [Example 5, 3-fluoro-5-[(3S)-2-[1-(5-fluoro-6-methoxy-pyrimidin-4-yl)piperidine-4-carbonyl]isoxazolidin-3-yl]benzonitrile] gave a pIC50 in test [1] of 8.10.

In the case of `COc1cc(N2CCC(C(=O)N3OCC[C@H]3c3cc(F)cc(C#N)c3)CC2)ncn1` [Example 4, (S)-3-fluoro-5-(2-(1-(6-methoxypyrimidin-4-yl)piperidine-4-carbonyl)isoxazolidin-3-yl)benzonitrile], the negative logarithm of the IC50 (pIC50) is 7.47 in test [2] and 7.10 in test [1].

The values above are taken from US20260327215A1, “ISOXAZOLIDINES AS RIPK1 INHIBITORS AND USE THEREOF” (GENZYME CORPORATION, priority 2022, published 2026).
